# In the supplement of paper PMC10307832:
# Key:
# Experiment in all cases: relative viability (nuclei count vs DMSO), 5 days (fraction); higher = more cells survive
# ABC-1 = system: ABC-1
# Outline: (§1)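 Five library-drug doses in √10 steps were combined with a fixed anchor-drug dose, or a single drug was given alone, by pin tool to lung cancer cell lines in 1536-well plates the day after seeding. Nuclei were stained and counted after 5 days. Relative viability is the nuclei count in treated wells over that in vehicle wells, taken as the median of duplicate plates.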
# CAL-12T = system: CAL-12T
# Outline: as §1
# COR-L 105 = system: COR-L 105
# Outline: as §1
# ChaGo-K-1 = system: ChaGo-K-1
# Outline: as §1
# EKVX = system: EKVX
# Outline: as §1
# EPLC-272H = system: EPLC-272H
# Outline: as §1
# H3255 = system: H3255
# Outline: as §1
# HCC-366 = system: HCC-366
# Outline: as §1
# HCC-827 = system: HCC-827
# Outline: as §1
# NCI-H1355 = system: NCI-H1355
# Outline: as §1
# NCI-H1792 = system: NCI-H1792
# Outline: as §1
# NCI-H1975 = system: NCI-H1975
# Outline: as §1
# NCI-H1993 = system: NCI-H1993
# Outline: as §1
# NCI-H2009 = system: NCI-H2009
# Outline: as §1
# NCI-H2085 = system: NCI-H2085
# Outline: as §1
# NCI-H2087 = system: NCI-H2087
# Outline: as §1
# NCI-H2228 = system: NCI-H2228
# Outline: as §1
# NCI-H322M = system: NCI-H322M
# Outline: as §1
# NCI-H441 = system: NCI-H441
# Outline: as §1
# NCI-H460 = system: NCI-H460
# Outline: as §1
# SK-MES-1 = system: SK-MES-1
# Outline: as §1
smiles,measurement,setting,value
Cc1csc(=NC2CCCCC2)n1/N=C/c1ccc(O)c(O)c1O [MIM1] + C[C@@H](Oc1cc(-c2cnn(C3CCNCC3)c2)cnc1N)c1c(Cl)ccc(F)c1Cl [Crizotinib] (partner 1 µM),relative viability,ABC-1; first compound 0.2 µM,1.08
same,relative viability,ABC-1; first compound 0.6325 µM,1.22
same,relative viability,ABC-1; first compound 2 µM,0.846
same,relative viability,ABC-1; first compound 6.325 µM,0.286
same,relative viability,ABC-1; first compound 20 µM,0.226
same,relative viability,CAL-12T; first compound 0.2 µM,0.596
same,relative viability,CAL-12T; first compound 0.6325 µM,0.676
same,relative viability,CAL-12T; first compound 2 µM,0.515
same,relative viability,CAL-12T; first compound 6.325 µM,0.438
same,relative viability,CAL-12T; first compound 20 µM,0.283
same,relative viability,COR-L 105; first compound 0.2 µM,0.893
same,relative viability,COR-L 105; first compound 0.6325 µM,0.811
same,relative viability,COR-L 105; first compound 2 µM,0.612
same,relative viability,COR-L 105; first compound 6.325 µM,0.724
same,relative viability,COR-L 105; first compound 20 µM,0.759
same,relative viability,ChaGo-K-1; first compound 0.2 µM,1.07
same,relative viability,ChaGo-K-1; first compound 0.6325 µM,1.13
same,relative viability,ChaGo-K-1; first compound 2 µM,0.953
same,relative viability,ChaGo-K-1; first compound 6.325 µM,0.835
same,relative viability,ChaGo-K-1; first compound 20 µM,0.285
same,relative viability,EKVX; first compound 0.2 µM,0.989
same,relative viability,EKVX; first compound 0.6325 µM,0.887
same,relative viability,EKVX; first compound 2 µM,0.788
same,relative viability,EKVX; first compound 6.325 µM,0.527
same,relative viability,EKVX; first compound 20 µM,0.757
same,relative viability,EPLC-272H; first compound 0.2 µM,0.911
same,relative viability,EPLC-272H; first compound 0.6325 µM,0.925
same,relative viability,EPLC-272H; first compound 2 µM,0.901
same,relative viability,EPLC-272H; first compound 6.325 µM,0.666
same,relative viability,EPLC-272H; first compound 20 µM,0.278
same,relative viability,H3255; first compound 0.2 µM,0.911
same,relative viability,H3255; first compound 0.6325 µM,0.847
same,relative viability,H3255; first compound 2 µM,0.774
same,relative viability,H3255; first compound 6.325 µM,0.629
same,relative viability,H3255; first compound 20 µM,0.435
same,relative viability,HCC-366; first compound 0.2 µM,0.552
same,relative viability,HCC-366; first compound 0.6325 µM,0.483
same,relative viability,HCC-366; first compound 2 µM,0.326
same,relative viability,HCC-366; first compound 6.325 µM,0.425
same,relative viability,HCC-366; first compound 20 µM,0.0362
same,relative viability,HCC-827; first compound 0.2 µM,0.971
same,relative viability,HCC-827; first compound 0.6325 µM,0.919
same,relative viability,HCC-827; first compound 2 µM,0.927
same,relative viability,HCC-827; first compound 6.325 µM,0.307
same,relative viability,HCC-827; first compound 20 µM,0.366
same,relative viability,NCI-H1355; first compound 0.2 µM,1.04
same,relative viability,NCI-H1355; first compound 0.6325 µM,1.16
same,relative viability,NCI-H1355; first compound 2 µM,1
same,relative viability,NCI-H1355; first compound 6.325 µM,0.94
same,relative viability,NCI-H1355; first compound 20 µM,0.516
same,relative viability,NCI-H1792; first compound 0.2 µM,0.935
same,relative viability,NCI-H1792; first compound 0.6325 µM,0.897
same,relative viability,NCI-H1792; first compound 2 µM,1.02
same,relative viability,NCI-H1792; first compound 6.325 µM,0.481
same,relative viability,NCI-H1792; first compound 20 µM,0.902
same,relative viability,NCI-H1975; first compound 0.2 µM,0.908
same,relative viability,NCI-H1975; first compound 0.6325 µM,1.1
same,relative viability,NCI-H1975; first compound 2 µM,0.871
same,relative viability,NCI-H1975; first compound 6.325 µM,0.545
same,relative viability,NCI-H1975; first compound 20 µM,0.482
same,relative viability,NCI-H1993; first compound 0.2 µM,0.886
same,relative viability,NCI-H1993; first compound 0.6325 µM,0.805
same,relative viability,NCI-H1993; first compound 2 µM,0.827
same,relative viability,NCI-H1993; first compound 6.325 µM,0.608
same,relative viability,NCI-H1993; first compound 20 µM,0.594
same,relative viability,NCI-H2009; first compound 0.2 µM,0.964
same,relative viability,NCI-H2009; first compound 0.6325 µM,1.1
same,relative viability,NCI-H2009; first compound 2 µM,1.1
same,relative viability,NCI-H2009; first compound 6.325 µM,1.02
same,relative viability,NCI-H2009; first compound 20 µM,0.732
same,relative viability,NCI-H2085; first compound 0.2 µM,0.851
same,relative viability,NCI-H2085; first compound 0.6325 µM,0.85
same,relative viability,NCI-H2085; first compound 2 µM,0.761
same,relative viability,NCI-H2085; first compound 6.325 µM,0.825
same,relative viability,NCI-H2085; first compound 20 µM,0.847
same,relative viability,NCI-H2087; first compound 0.2 µM,0.772
same,relative viability,NCI-H2087; first compound 0.6325 µM,0.934
same,relative viability,NCI-H2087; first compound 2 µM,0.838
same,relative viability,NCI-H2087; first compound 6.325 µM,0.739
same,relative viability,NCI-H2087; first compound 20 µM,0.766
same,relative viability,NCI-H2228; first compound 0.2 µM,0.453
same,relative viability,NCI-H2228; first compound 0.6325 µM,0.488
same,relative viability,NCI-H2228; first compound 2 µM,0.61
same,relative viability,NCI-H2228; first compound 6.325 µM,0.241
same,relative viability,NCI-H2228; first compound 20 µM,0.22
same,relative viability,NCI-H322M; first compound 0.2 µM,0.831
same,relative viability,NCI-H322M; first compound 0.6325 µM,1.02
same,relative viability,NCI-H322M; first compound 2 µM,0.762
same,relative viability,NCI-H322M; first compound 6.325 µM,0.808
same,relative viability,NCI-H322M; first compound 20 µM,0.71
same,relative viability,NCI-H441; first compound 0.2 µM,0.835
same,relative viability,NCI-H441; first compound 0.6325 µM,0.692
same,relative viability,NCI-H441; first compound 2 µM,0.774
same,relative viability,NCI-H441; first compound 6.325 µM,0.433
same,relative viability,NCI-H441; first compound 20 µM,0.222
same,relative viability,NCI-H460; first compound 0.2 µM,0.853
same,relative viability,NCI-H460; first compound 0.6325 µM,0.994
same,relative viability,NCI-H460; first compound 2 µM,0.374
same,relative viability,NCI-H460; first compound 6.325 µM,0.205
same,relative viability,NCI-H460; first compound 20 µM,0.031
same,relative viability,SK-MES-1; first compound 0.2 µM,0.953
same,relative viability,SK-MES-1; first compound 0.6325 µM,0.937
same,relative viability,SK-MES-1; first compound 2 µM,0.959
same,relative viability,SK-MES-1; first compound 6.325 µM,0.799
same,relative viability,SK-MES-1; first compound 20 µM,0.732
